Measured values reported in patent US8772500B2, “TRPV3 modulators” (AbbVie Inc., priority 2011, dated 2014).

How the values were obtained:
[1] = In vitro rat microsomal stability assay; assay type: in vitro ADME, rat (Sprague-Dawley); conditions: for RAT MICROSOMAL STABILITY (% REMAINING AFTER 30 MINUTES): Sprague-Dawley, 0.5 h, 0.5 μM, pH 7.4
Procedure, shortened: (§1)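 Incubations ran at 37 °C in NADPH-supplemented rat (Sprague-Dawley) or human hepatic microsomes.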

[2] = molecular target: T1, human TRPV3 (Homo sapiens, UniProt Q8NET8); assay: In vitro antagonism of recombinant human TRPV3 activation (FLIPR Tetra calcium assay, 2-APB as agonist); assay type: cell-based; conditions: HEK293 cells stably expressing human TRPV3; 2-APB 80 μM; range class; read-out: IC50 (reported range)
T1 construct: expressed in transfected cells
T1 sequence (Q8NET8 1-790): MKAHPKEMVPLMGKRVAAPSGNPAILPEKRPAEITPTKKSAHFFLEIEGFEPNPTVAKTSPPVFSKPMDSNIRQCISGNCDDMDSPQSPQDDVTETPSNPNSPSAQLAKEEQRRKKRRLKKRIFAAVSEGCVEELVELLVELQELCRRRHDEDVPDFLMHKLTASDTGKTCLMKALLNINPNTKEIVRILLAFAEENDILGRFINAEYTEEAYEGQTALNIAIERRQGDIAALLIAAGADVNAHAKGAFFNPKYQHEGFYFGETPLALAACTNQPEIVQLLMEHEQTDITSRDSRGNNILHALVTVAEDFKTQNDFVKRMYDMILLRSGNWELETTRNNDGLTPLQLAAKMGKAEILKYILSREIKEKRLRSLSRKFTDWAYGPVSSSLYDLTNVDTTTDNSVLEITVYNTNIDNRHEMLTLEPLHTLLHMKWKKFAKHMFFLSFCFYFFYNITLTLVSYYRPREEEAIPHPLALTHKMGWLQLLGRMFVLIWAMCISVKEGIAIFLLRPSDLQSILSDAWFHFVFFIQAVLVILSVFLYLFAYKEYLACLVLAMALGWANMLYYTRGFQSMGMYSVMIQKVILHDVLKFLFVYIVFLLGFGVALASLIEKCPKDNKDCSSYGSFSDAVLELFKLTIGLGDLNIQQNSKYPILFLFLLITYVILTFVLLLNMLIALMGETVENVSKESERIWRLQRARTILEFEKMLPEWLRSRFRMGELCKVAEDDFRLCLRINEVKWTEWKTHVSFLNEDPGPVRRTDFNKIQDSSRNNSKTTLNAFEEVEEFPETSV
Protocol: Test compounds were evaluated for ability to antagonize the activation of recombinant human TRPV3 using FLIPR® Tetra cellular screening. Specifically, on the day prior to the experiment recombinant HEK293 cells that stably express human TRPV3 were removed from tissue culture flasks and plated in growth medium at 20,000 cells/well into Poly-d-lysine coated black/clear 384-well Plate (Corning, 3845) using a Multidrop® dispenser (ThermoScientific, Waltham, Mass.). Prior to the start of the assay, the medium was removed by aspiration, and cells were loaded with 30 μL no-wash FLIPR® Calcium-4 dye (λEX=470-495 nm, λEM=515-575 nm; Molecular Devices, Sunnyvale, Calif.). The cells were then incubated for 90-120 minutes in the dark prior to addition of the test compound.
A double-addition protocol was used. The test compound (i.e., the TRPV3 antagonist) was added at the 10 second time point, followed by the addition of a TRPV3 agonist three minutes later. Each test compound evaluated was first dissolved in DMSO to prepare a 10 mM stock solution. A solution (5×) of the test compound was then prepared in DPBS (Dulbecco's Phosphate Buffered Saline) and 10 μL of that solution was added to the cells at a delivery rate of 40 μL/sec. The TRPV3 agonist used to activate human TRPV3 expressed by the […] was 2-aminoethoxy-diphenyl borate (2-APB; Tocris Cookson, Ellisville, Mo.) at 80 μM. Final assay volume was 50 μL. Total length of an experimental run was 10 minutes.
Changes in fluorescence were measured over time using the FLIPR® instrument. The intensity of the fluorescence was captured and digitally transferred to an interfaced computer. The maximum response minus minimum response was calculated and expressed as the percentage of the maximum 2-APB response in the absence of antagonist. The concentration of 2-APB corresponds to its EC80.
Table 1 reports the IC50 values measured for the test compounds as human TRPV3 antagonists. […] Actual measured values are shown parenthetically after the reported range. In most cases, the values reported are average values from at least two runs (i.e., n≧2).

[3] = In vitro human microsomal stability assay; assay type: in vitro ADME; conditions: for HUMAN MICROSOMAL STABILITY (% REMAINING AFTER 30 MINUTES): 0.5 h, 0.5 μM, pH 7.4
Procedure, shortened: as §1

[4] = 0.5 μM substrate, 0.25 mg/mL microsomal protein, pH 7.4, 37° C., NADPH, 30 minutes

Row | SMILES | RAT […] (% REMAINING AFTER 30 MINUTES) [1, 4] | IC50 [2] | HUMAN […] (% REMAINING AFTER 30 MINUTES) [3, 4] | RAT MICROSOMAL STABILITY (% REMAINING AFTER 30 MINUTES) [1] | HUMAN MICROSOMAL STABILITY (% REMAINING AFTER 30 MINUTES) [3]
1 | CC1(O)CC(c2ccc(C(F)(F)F)cc2)([C@H](O)c2ccccn2)C1 (stereo in doubt) [Example 233, trans-3-[(S)-hydroxy(pyridin-2-yl)methyl]-1-methyl-3-[4-(trifluoromethyl)-phenyl]cyclobutanol] | 67% | 5.1 to 20 µM | >85% |  | 
2 | OC(c1ccccn1)C1(c2ccccc2F)CCC1 (stereo not drawn) [Example 1, [1-(2-fluorophenyl)cyclobutyl](pyridin-2-yl)methanol] |  | 1.1 to 5 µM |  | 0.48% | 0.38%
3 | OC(c1ccccn1)C1(c2cccc(F)c2)CCC1 (stereo not drawn) [Example 2, [1-(3-fluorophenyl)cyclobutyl](pyridin-2-yl)methanol] |  | 0.05 to 0.5 µM |  | 0.64% | 17%
4 | OC(c1ccccn1)C1(c2ccc(F)cc2)CCC1 (stereo not drawn) [Example 3, [1-(4-fluorophenyl)cyclobutyl](pyridin-2-yl)methanol] |  | 0.501 to 1 µM |  | 3.8% | 28%
5 | OC(c1ccccn1)C1(c2ccc(F)c(F)c2)CCC1 (stereo not drawn) [Example 4, [1-(3,4-difluorophenyl)cyclobutyl](pyridin-2-yl)methanol] |  | 0.05 to 0.5 µM |  | 4.2% | 19%
6 | OC(c1ccccn1)C1(c2ccccc2C(F)(F)F)CCC1 (stereo not drawn) [Example 5, pyridin-2-yl{1-[2-(trifluoromethyl)phenyl]cyclobutyl}methanol] |  | 5.1 to 20 µM |  | 0.06% | 0.27%
7 | OC(c1ccccn1)C1(c2cccc(C(F)(F)F)c2)CCC1 (stereo not drawn) [Example 6, pyridin-2-yl{1-[3-(trifluoromethyl)phenyl]cyclobutyl}methanol] |  | 0.05 to 0.5 µM |  | 2.3% | 1.2%
8 | Cc1ccccc1C1(C(O)c2ccccn2)CCC1 (stereo not drawn) [Example 7, [1-(2-methylphenyl)cyclobutyl](pyridin-2-yl)methanol] |  | 5.1 to 20 µM |  | 0.32% | 0.15%
9 | Cc1cccc(C2(C(O)c3ccccn3)CCC2)c1 (stereo not drawn) [Example 8, [1-(3-methylphenyl)cyclobutyl](pyridin-2-yl)methanol] |  | 0.05 to 0.5 µM |  | 0.73% | 0.13%
10 | Cc1ccc(C2(C(O)c3ccccn3)CCC2)cc1 (stereo not drawn) [Example 9, [1-(4-methylphenyl)cyclobutyl](pyridin-2-yl)methanol] |  | 1.1 to 5 µM |  | 0.18% | 0.12%
11 | OC(c1ccccn1)C1(c2ccccc2OC(F)(F)F)CCC1 (stereo not drawn) [Example 10, pyridin-2-yl{1-[2-(trifluoromethoxy)phenyl]cyclobutyl}methanol] |  | 1.1 to 5 µM |  | 0.62% | 0.42%
12 | OC(c1ccccn1)C1(c2cccc(OC(F)(F)F)c2)CCC1 (stereo not drawn) [Example 11, pyridin-2-yl{1-[3-(trifluoromethoxy)phenyl]cyclobutyl}methanol] |  | 0.05 to 0.5 µM |  | 0.80% | 0.72%
13 | OC(c1ccccn1)C1(c2ccc(OC(F)(F)F)cc2)CCC1 (stereo not drawn) [Example 12, pyridin-2-yl{1-[4-(trifluoromethoxy)phenyl]cyclobutyl}methanol] |  | 0.05 to 0.5 µM |  | 11% | 24%
14 | OC(c1ccccn1)C1(c2cc(C(F)(F)F)cc(C(F)(F)F)c2)CCC1 (stereo not drawn) [Example 13, {1-[3,5-bis(trifluoromethyl)phenyl]cyclobutyl}(pyridin-2-yl)methanol] |  | 0.501 to 1 µM |  | 19% | 7.4%
15 | OC(c1ccccn1)C1(c2ccc(F)c(C(F)(F)F)c2)CCC1 (stereo not drawn) [Example 15, {1-[4-fluoro-3-(trifluoromethyl)phenyl]cyclobutyl}(pyridin-2-yl)methanol] |  | 0.05 to 0.5 µM |  | 1.2% | 5.6%
16 | OC(c1ccccn1)C1(c2ccc(C(F)(F)F)c(F)c2)CCC1 (stereo not drawn) [Example 17] |  | 1.1 to 5 µM |  | 13% | 21%
17 | OC(c1ccccn1)C1(c2cccc(Oc3ccccc3)c2)CCC1 (stereo not drawn) [Example 23, [1-(3-phenoxyphenyl)cyclobutyl](pyridin-2-yl)methanol] |  | 0.501 to 1 µM |  | 0.69% | 0.12%
18 | OC(c1ccccn1)C1(c2ccc(Oc3ccccc3)cc2)CCC1 (stereo not drawn) [Example 24, [1-(4-phenoxyphenyl)cyclobutyl](pyridin-2-yl)methanol] |  | 1.1 to 5 µM |  | 17% | 20%
19 | OC(c1ccccn1)C1(c2ccc(Cc3ccccc3)cc2)CCC1 (stereo not drawn) [Example 25, [1-(4-benzylphenyl)cyclobutyl](pyridin-2-yl)methanol] |  | 1.1 to 5 µM |  | 1.3% | 21%
20 | O[C@H](c1ccccn1)C1(c2ccc(Cl)c(Cl)c2)CCC1 [Example 26, (S)-[1-(3,4-dichlorophenyl)cyclobutyl](pyridin-2-yl)methanol] |  | 0.05 to 0.5 µM |  | 1.0% | 6.3%
21 | O[C@H](c1ccccn1)C1(c2ccc(C(F)(F)F)cc2F)CCC1 [Example 27, (S)-{1-[2-fluoro-4-(trifluoromethyl)phenyl]cyclobutyl}(pyridin-2-yl)-methanol] |  | 1.1 to 5 µM |  | 15% | 13%
22 | O[C@H](c1ccccn1)C1(c2ccc(C(F)(F)F)cc2)CCC1 [Example 28, (S)-pyridin-2-yl{1-[4-(trifluoromethyl)phenyl]cyclobutyl}methanol] |  | 0.05 to 0.5 µM |  | 13% | 12%
23 | O[C@H](c1ccccn1)C1(c2ccc(C(F)(F)F)c(F)c2)CCC1 [Example 29, (S)-{1-[3-fluoro-4-(trifluoromethyl)phenyl]cyclobutyl}(pyridin-2-yl)-methanol] |  | 1.1 to 5 µM |  | 45% | 5.3%
24 | Cc1cccnc1[C@@H](O)C1(c2ccc(Cl)c(Cl)c2)CCC1 [Example 30, (S)-[1-(3,4-dichlorophenyl)cyclobutyl](3-methylpyridin-2-yl)methanol] |  | 1.1 to 5 µM |  | 0.98% | 1.5%
